Where only a bound is given, the exact number is not on record here.

LRRK2, sequence (Q5S007 970-2527 limits assumed): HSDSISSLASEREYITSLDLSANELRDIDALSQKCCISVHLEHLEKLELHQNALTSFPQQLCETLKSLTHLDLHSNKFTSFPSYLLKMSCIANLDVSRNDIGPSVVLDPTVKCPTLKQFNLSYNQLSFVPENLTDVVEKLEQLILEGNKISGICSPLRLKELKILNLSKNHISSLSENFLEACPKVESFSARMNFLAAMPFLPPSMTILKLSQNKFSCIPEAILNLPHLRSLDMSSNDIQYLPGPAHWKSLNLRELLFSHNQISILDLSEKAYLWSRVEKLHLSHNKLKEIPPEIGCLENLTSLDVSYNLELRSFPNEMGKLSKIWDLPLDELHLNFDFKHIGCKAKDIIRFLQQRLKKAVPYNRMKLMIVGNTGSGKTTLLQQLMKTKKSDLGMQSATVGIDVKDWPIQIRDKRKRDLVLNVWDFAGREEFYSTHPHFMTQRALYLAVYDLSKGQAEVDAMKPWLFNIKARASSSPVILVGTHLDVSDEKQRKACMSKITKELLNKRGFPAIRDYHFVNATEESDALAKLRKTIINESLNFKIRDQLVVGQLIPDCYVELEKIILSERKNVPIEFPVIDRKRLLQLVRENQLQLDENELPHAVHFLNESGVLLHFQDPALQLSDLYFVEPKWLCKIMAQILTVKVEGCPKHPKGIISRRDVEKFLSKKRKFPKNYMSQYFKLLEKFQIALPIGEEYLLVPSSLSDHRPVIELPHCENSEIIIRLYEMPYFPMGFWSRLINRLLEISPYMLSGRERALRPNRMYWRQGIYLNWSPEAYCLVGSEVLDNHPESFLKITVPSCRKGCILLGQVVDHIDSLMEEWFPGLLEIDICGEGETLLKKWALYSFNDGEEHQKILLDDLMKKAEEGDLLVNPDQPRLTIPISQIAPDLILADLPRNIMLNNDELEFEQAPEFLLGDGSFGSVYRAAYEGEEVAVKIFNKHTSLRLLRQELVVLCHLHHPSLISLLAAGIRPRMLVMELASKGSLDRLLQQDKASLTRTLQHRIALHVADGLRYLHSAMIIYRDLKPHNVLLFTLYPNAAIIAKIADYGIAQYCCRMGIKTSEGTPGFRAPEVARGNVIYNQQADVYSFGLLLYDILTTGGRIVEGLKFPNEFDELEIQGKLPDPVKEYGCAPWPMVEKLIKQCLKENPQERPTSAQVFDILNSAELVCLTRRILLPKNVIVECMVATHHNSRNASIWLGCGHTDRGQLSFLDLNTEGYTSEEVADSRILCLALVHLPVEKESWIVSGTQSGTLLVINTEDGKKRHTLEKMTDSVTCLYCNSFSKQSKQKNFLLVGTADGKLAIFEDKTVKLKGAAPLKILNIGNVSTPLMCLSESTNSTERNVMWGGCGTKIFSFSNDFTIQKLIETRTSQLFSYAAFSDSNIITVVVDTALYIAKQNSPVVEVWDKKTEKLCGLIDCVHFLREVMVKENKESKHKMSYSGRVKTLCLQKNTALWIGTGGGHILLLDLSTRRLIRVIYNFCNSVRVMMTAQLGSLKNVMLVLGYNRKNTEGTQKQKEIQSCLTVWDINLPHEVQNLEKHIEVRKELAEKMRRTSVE

The assay has as its target LRRK2 (Homo sapiens, UniProt Q5S007). Briefly: LRRK2-LRRK2 G2019S-Assay (LanthaScreen Eu Kinase Binding Assay). The settings on record: 5 nM LRRK2, 10 nM tracer 236, 2 nM EU-Anti-GST antibody, 1 h at RT; read-out: LRRK2 Activities: IC50. A digest of the protocol:
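In a TR-FRET tracer displacement assay, LRRK2 or its mutants at 5 nM were mixed with 2 nM Eu-anti-GST antibody and 10 nM tracer 236 in kinase buffer A for 1 h at RT. The 665/615 nm emission ratio was plotted against inhibitor concentration, and IC50 came from a variable-slope sigmoidal fit.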
For `CS(=O)(=O)c1ccc2nc(Nc3ccc4c(c3)NC(=O)CO4)c3n[nH]cc3c2c1` [Example 343, 6-((8-(methylsulfonyl)-2H-pyrazolo[3,4-c]quinolin-4-yl)amino)-2H-benzo[b][1,4]oxazin-3(4H)-one], the IC50 (as a rule, the concentration at which inhibition is half-maximal) is 10 to 100 nM.
The value for `COc1cccc2nc(Nc3cn(C(C)C)nc3C)c3[nH]ncc3c12` [Example 220, N-(1-isopropyl-3-methyl-1H-pyrazol-4-yl)-9-methoxy-3H-pyrazolo[3,4-c]quinolin-4-amine] was less than 10 nM; that for `COc1ccc(Nc2nc3cccc(S(C)(=O)=O)c3c3cn[nH]c23)cc1OC` [Example 99, N-(3,4-dimethoxyphenyl)-9-(methylsulfonyl)-3H-pyrazolo[3,4-c]quinolin-4-amine] was 100 to 1000 nM.
For `COCCn1ncc(Nc2nc3cccc(OC)c3c3cn[nH]c23)c1C(F)(F)F` [Example 268, 9-methoxy-N-(1-(2-methoxyethyl)-5-(trifluoromethyl)-1H-pyrazol-4-yl)-3H-pyrazolo[3,4-c]quinolin-4-amine] the value was 100 to 1000 nM; for `COc1cccc2nc(Nc3ccc(N4CCOC4=O)cc3)c3n[nH]cc3c12` [Example 40, 3-(4-((9-methoxy-2H-pyrazolo[3,4-c]quinolin-4-yl)amino)phenyl)oxazolidin-2-one], less than 10 nM.
For `COc1ccc2nc(Nc3ccc(-c4nnc(S)o4)cc3)c3n[nH]cc3c2c1` [Example 84, 5-(4-((8-methoxy-2H-pyrazolo[3,4-c]quinolin-4-yl)amino)phenyl)-1,3,4-oxadiazole-2-thiol] the value was 10 to 100 nM; for `COCCn1cc(Nc2nc3ccc(S(C)(=O)=O)cc3c3cn[nH]c23)cn1` [Example 113, N-(1-(2-methoxyethyl)-1H-pyrazol-4-yl)-8-(methylsulfonyl)-3H-pyrazolo[3,4-c]quinolin-4-amine], 10 to 100 nM.
On to `COc1ccc2nc(Nc3ccc(N4CCN(C(C)=O)CC4)nc3)c3n[nH]cc3c2c1` [Example 91, 1-(4-(5-((8-methoxy-2H-pyrazolo[3,4-c]quinolin-4-yl)amino)pyridin-2-yl)piperazin-1-yl)ethan-1-one], for which the IC50 fell in the range of 100 to 1000 nM.
As to `COc1cccc2nc(Nc3cn(C(C)C)nc3C)c3[nH]ncc3c12` [Example 222, N-(1-isopropyl-3-methyl-1H-pyrazol-4-yl)-9-methoxy-3H-pyrazolo[3,4-c]quinolin-4-amine], the IC50 fell in the range of 10 to 100 nM.
The value for `CSc1ccc2nc(Nc3cccc(S(C)(=O)=O)c3)c3[nH]ncc3c2c1` [Example 44, N-(3-(methylsulfonyl)phenyl)-8-(methylthio)-3H-pyrazolo[3,4-c]quinolin-4-amine] was 10 to 100 nM; that for `Cc1c(Nc2nc3ccc(S(C)(=O)=O)cc3c3c[nH]nc23)cnn1CC(C)(C)O` [Example 326, 2-methyl-1-(5-methyl-4-((8-(methylsulfonyl)-2H-pyrazolo[3,4-c]quinolin-4-yl)amino)-1H-pyrazol-1-yl)propan-2-ol] was 100 to 1000 nM; that for `COc1ccc2nc(Nc3cnn(C(C)c4ccccc4)c3)c3n[nH]cc3c2c1` (stereo not shown) [Example 320, 8-methoxy-N-(1-(1-phenylethyl)-1H-pyrazol-4-yl)-2H-pyrazolo[3,4-c]quinolin-4-amine] was 100 to 1000 nM.
For `CC(C)(O)Cn1cc(Nc2nc3ccc(S(C)(=O)=O)cc3c3cn[nH]c23)cn1` [Example 317, 2-methyl-1-(4-((8-(methylsulfonyl)-3H-pyrazolo[3,4-c]quinolin-4-yl)amino)-1H-pyrazol-1-yl)propan-2-ol] the value was 10 to 100 nM; for `COc1ccc2nc(Nc3ccc4c(c3)N(C)C(=O)CO4)c3n[nH]cc3c2c1` [Example 322, 6-((8-methoxy-2H-pyrazolo[3,4-c]quinolin-4-yl)amino)-4-methyl-2H-benzo[b][1,4]oxazin-3(4H)-one], 100 to 1000 nM.
For `CS(=O)(=O)c1ccc2nc(Nc3cc(C(=O)O)n[nH]3)c3n[nH]cc3c2c1` [Example 335, 5-((8-(methylsulfonyl)-2H-pyrazolo[3,4-c]quinolin-4-yl)amino)-1H-pyrazole-3-carboxylic acid] the value was 100 to 1000 nM.
For the compound `COc1cccc2nc(Nc3ccc(N4CCOCC4=O)cc3)c3[nH]ncc3c12` [Example 60, 4-(4-((9-methoxy-3H-pyrazolo[3,4-c]quinolin-4-yl)amino)phenyl)morpholin-3-one], the IC50 lay in the range of 100 to 1000 nM.
Regarding `COc1cccc2nc(Nc3cnn(C(C)(C)C)c3)c3[nH]ncc3c12` [Example 181, N-(1-(tert-butyl)-1H-pyrazol-4-yl)-9-methoxy-3H-pyrazolo[3,4-c]quinolin-4-amine], the IC50 was less than 10 nM.
With `Fc1cccc2c1nc(Nc1ccc(N3CCOCC3)cc1)c1[nH]ncc12` [Example 50, 6-fluoro-N-(4-morpholinophenyl)-3H-pyrazolo[3,4-c]quinolin-4-amine], the IC50 was in the range of 100 to 1000 nM.
For `CS(=O)(=O)c1cccc(Nc2nc3cccc(S(C)(=O)=O)c3c3cn[nH]c23)c1` [Example 107, 9-(methylsulfonyl)-N-(3-(methylsulfonyl)phenyl)-3H-pyrazolo[3,4-c]quinolin-4-amine] the value was 100 to 1000 nM; for `Fc1cc(Nc2nc3cccc(F)c3c3cn[nH]c23)ccc1N1CCOCC1` [Example 2, 9-fluoro-N-(3-fluoro-4-morpholinophenyl)-3H-pyrazolo[3,4-c]quinolin-4-amine], 100 to 1000 nM.
For `COc1ccc2nc(Nc3ccc4c(c3)S(=O)(=O)CC4)c3n[nH]cc3c2c1` [Example 12, 6-((8-methoxy-2H-pyrazolo[3,4-c]quinolin-4-yl)amino)-2,3-dihydrobenzo[b]thiophene 1,1-dioxide] the value was 100 to 1000 nM.
As to `Cn1nc(C2CC2)cc1Nc1nc2ccc(S(C)(=O)=O)cc2c2cn[nH]c12` [Example 239, N-(3-cyclopropyl-1-methyl-1H-pyrazol-5-yl)-8-(methylsulfonyl)-3H-pyrazolo[3,4-c]quinolin-4-amine], the IC50 is 100 to 1000 nM.
With `CS(=O)(=O)c1cccc2nc(Nc3ccc(N4CCOCC4)cc3)c3[nH]ncc3c12` [Example 92, 9-(methylsulfonyl)-N-(4-morpholinophenyl)-3H-pyrazolo[3,4-c]quinolin-4-amine], the IC50 is less than 10 nM.
The value for `COc1cccc2nc(Nc3ccc(F)c(S(C)(=O)=O)c3)c3[nH]ncc3c12` [Example 32, N-(4-fluoro-3-(methylsulfonyl)phenyl)-9-methoxy-3H-pyrazolo[3,4-c]quinolin-4-amine] was 10 to 100 nM.
On to `COc1cc(Nc2nc3cccc(OC)c3c3cn[nH]c23)ccc1N1CCOCC1` [Example 16, 9-methoxy-N-(3-methoxy-4-morpholinophenyl)-3H-pyrazolo[3,4-c]quinolin-4-amine], for which the IC50 fell in the range of 10 to 100 nM.
For `COc1ccc2nc(Nc3cnn(C)n3)c3n[nH]cc3c2c1` [Example 122, 8-methoxy-N-(2-methyl-2H-1,2,3-triazol-4-yl)-2H-pyrazolo[3,4-c]quinolin-4-amine] the value was 100 to 1000 nM; for `COc1ccc2nc(Nc3cnn(C)c3C)c3n[nH]cc3c2c1` [Example 104, N-(1,5-dimethyl-1H-pyrazol-4-yl)-8-methoxy-2H-pyrazolo[3,4-c]quinolin-4-amine], 100 to 1000 nM; for `COc1ccc2nc(Nc3ccc(N4CCOC4=O)cc3)c3n[nH]cc3c2c1` [Example 25, 3-(4-((8-methoxy-2H-pyrazolo[3,4-c]quinolin-4-yl)amino)phenyl)oxazolidin-2-one], 100 to 1000 nM.
For `CN1CCN(C2CCN(c3ccc(Nc4nc5cccc(S(C)(=O)=O)c5c5cn[nH]c45)cc3)CC2)CC1` [Example 97, N-(4-(4-(4-methylpiperazin-1-yl)piperidin-1-yl)phenyl)-9-(methylsulfonyl)-3H-pyrazolo[3,4-c]quinolin-4-amine] the value was 100 to 1000 nM.
Turning to `COc1cccc2nc(Nc3ccc(N4CCN(S(C)(=O)=O)CC4)cc3)c3[nH]ncc3c12` [Example 59, 9-methoxy-N-(4-(4-(methylsulfonyl)piperazin-1-yl)phenyl)-3H-pyrazolo[3,4-c]quinolin-4-amine], the IC50 was in the range of 10 to 100 nM.
For `COc1cccc2nc(Nc3cnn(C4CCOCC4)c3Cl)c3[nH]ncc3c12` [Example 255, N-(5-chloro-1-(tetrahydro-2H-pyran-4-yl)-1H-pyrazol-4-yl)-9-methoxy-3H-pyrazolo[3,4-c]quinolin-4-amine] the value was less than 10 nM.
For `COCCn1cc(Nc2nc3ccc(S(C)(=O)=O)cc3c3cn[nH]c23)c(C(F)(F)F)n1` [Example 271, N-(1-(2-methoxyethyl)-3-(trifluoromethyl)-1H-pyrazol-4-yl)-8-(methylsulfonyl)-3H-pyrazolo[3,4-c]quinolin-4-amine] the value was 10 to 100 nM; for `COc1cccc2nc(Nc3cnn(C4CCN(C(C)=O)CC4)c3)c3[nH]ncc3c12` [Example 157, 1-(4-(4-((9-methoxy-3H-pyrazolo[3,4-c]quinolin-4-yl)amino)-1H-pyrazol-1-yl)piperidin-1-yl)ethan-1-one], less than 10 nM.
For `COCCCn1ncc(Nc2nc3ccc(S(C)(=O)=O)cc3c3cn[nH]c23)c1Cl` [Example 237, N-(5-chloro-1-(3-methoxypropyl)-1H-pyrazol-4-yl)-8-(methylsulfonyl)-3H-pyrazolo[3,4-c]quinolin-4-amine] the value was 10 to 100 nM.
Take `COc1cccc2c1nc(Nc1ccc(N3CCOCC3)cc1)c1[nH]ncc12` [Example 304, 6-methoxy-N-(4-morpholinophenyl)-3H-pyrazolo[3,4-c]quinolin-4-amine]: the IC50 is 100 to 1000 nM.
The value for `COc1cc(OC)c2nc(Nc3ccc(C(=O)N4CCOCC4)cc3)c3[nH]ncc3c2c1` [Example 308, (4-((6,8-dimethoxy-3H-pyrazolo[3,4-c]quinolin-4-yl)amino)phenyl)(morpholino)methanone] was 10 to 100 nM.
For `COc1cc(Nc2nc3cccc(F)c3c3cn[nH]c23)ccc1N1CCOCC1` [Example 31, 9-fluoro-N-(3-methoxy-4-morpholinophenyl)-3H-pyrazolo[3,4-c]quinolin-4-amine] the value was 100 to 1000 nM.

The values are drawn from patent publication US10752624B2, “Kinase inhibitors” (Origenis GmbH, priority 2012, dated 2020).
